In ChEMBL document CHEMBL1157916, “Cytotoxicity against KB and NCI-H187 cell lines of modified flavonoids from Kaempferia parviflora” (Bioorg Med Chem Lett, 2010):

Tests used:
Vero [1] = assay: Cytotoxicity against african green monkey Vero cells by green fluorescent protein based assay; assay type: cell-based; conditions: Chlorocebus sabaeus
NCI-H187 [2] = assay: Selectivity ratio of IC50 of ellipticine to IC50 of compound for human NCI-H187 cells; assay type: functional
NCI-H187 [3] = assay: Cytotoxicity against human NCI-H187 cells after 5 days by Resazurin Microplate Assay; assay type: functional, cell-based; conditions: NCI-H187, 120 h
Vero [4] = assay: Selectivity ratio of IC50 for african green monkey Vero cells to IC50 for human NCI-H187 cells
KB [5] = assay: Cytotoxicity against human KB cells after 3 days by Resazurin Microplate Assay; assay type: functional, cell-based; conditions: 72 h
KB [6] = assay: Cytotoxicity against human KB cells at >100 uM after 3 days by Resazurin Microplate Assay; assay type: functional, cell-based
Vero [7] = assay: Cytotoxicity against african green monkey Vero cells at >100 uM by green fluorescent protein based assay; assay type: cell-based, Chlorocebus sabaeus
NCI-H187 [8] = assay: Cytotoxicity against human NCI-H187 cells at >100 uM after 5 days by Resazurin Microplate Assay; assay type: functional, cell-based
Vero [9] = assay: Selectivity ratio of IC50 for african green monkey Vero cells to IC50 for human KB cells

COc1cc(O)c2c(c1)OC(c1ccccc1)C(OC)/C2=N\O (stereo unspecified)
IC50 (Vero [1]): 41.2 µM | fold change (FC) (NCI-H187 [2]): 12 | IC50 (NCI-H187 [3]): 0.23 µM | fold change (FC) (Vero [4]): 180 | IC50 (KB [5]): 23.9 µM

COc1cc(OC)c2c(c1)OC(c1ccccc1)C/C2=N\O (stereo unspecified)
IC50 (KB [6]): Not Active | IC50 (NCI-H187 [3]): 53.2 µM

COc1ccc(C2C/C(=N\O)c3c(OC)cc(OC)cc3O2)cc1 (stereo unspecified)
IC50 (NCI-H187 [3]): 4.04 µM | IC50 (KB [5]): 43.1 µM | IC50 (Vero [7]): Non-toxic

COc1ccc(C2CC(O)c3c(OC)cc(OC)cc3O2)cc1 (stereo unspecified)
IC50 (KB [6]): Not Active | IC50 (NCI-H187 [8]): Not Active

COc1cc(O)c2c(=O)c(OC)c(-c3ccccc3)oc2c1
IC50 (KB [6]): Not Active | IC50 (NCI-H187 [8]): Not Active | IC50 (Vero [7]): Non-toxic

COc1cc(O)c2c(c1)OC(c1ccccc1)C/C2=N/O (stereo unspecified)
IC50 (Vero [1]): 2.67 µM | fold change (FC) (Vero [9]): 10 | fold change (FC) (NCI-H187 [2]): 200 | IC50 (NCI-H187 [3]): 0.014 µM | fold change (FC) (Vero [4]): 190 | IC50 (KB [5]): 0.26 µM

O/N=C1\CC(c2ccccc2)Oc2cc(O)cc(O)c21 (stereo unspecified)
IC50 (NCI-H187 [3]): 2.32 µM | IC50 (KB [5]): 84.9 µM | IC50 (Vero [7]): Non-toxic

COc1cc(OC)c2c(c1)OC(c1ccccc1)CC2O (stereo unspecified)
IC50 (NCI-H187 [8]): Not Active | IC50 (KB [5]): 92.1 µM

COc1cc(O)c(C(=O)CCc2ccccc2)c(O)c1
IC50 (KB [6]): Not Active | IC50 (NCI-H187 [3]): 9.7 µM

COc1cc(O)c(C(=O)CCc2ccccc2)c(OC)c1
IC50 (KB [6]): Not Active | IC50 (NCI-H187 [8]): Not Active

COc1ccc(CCC(=O)c2c(O)cc(OC)cc2OC)cc1
IC50 (KB [6]): Not Active | IC50 (NCI-H187 [8]): Not Active

COc1cc(O)c2c(c1)O[C@H](c1ccccc1)[C@H](OC)C2=O (mixture of isomers)
IC50 (NCI-H187 [3]): 98.2 µM | IC50 (KB [5]): 30.4 µM

COc1cc(O)c2c(c1)O[C@H](c1ccccc1)[C@H](OC)[C@@H]2O (racemic)
IC50 (NCI-H187 [3]): 95.6 µM | IC50 (KB [5]): 56.8 µM

COc1ccc(C2CC(=O)c3c(OC)cc(OC)cc3O2)cc1 (racemic)
IC50 (NCI-H187 [3]): 25.1 µM | IC50 (KB [5]): 78.8 µM

COc1cc(OC)c2c(=O)cc(-c3ccccc3)oc2c1 [CHRYSIN DIMETHYL ETHER]
IC50 (KB [6]): Not Active | IC50 (NCI-H187 [8]): Not Active | IC50 (Vero [7]): Non-toxic

COc1cc(OC)c2c(c1)OC(c1ccccc1)CC2=O (stereo unspecified) [DIMETHYLPINOCEMBRIN]
IC50 (NCI-H187 [3]): 33.1 µM | IC50 (KB [5]): 39.9 µM

Cc1c2ccncc2c(C)c2c1[nH]c1ccccc12 [ELLIPTECINE]
IC50 (Vero [1]): 2.29 µM | IC50 (NCI-H187 [3]): 2.77 µM | IC50 (KB [5]): 1.79 µM

O=C1C[C@@H](c2ccccc2)Oc2cc(O)cc(O)c21 [PINOCEMBRIN]
IC50 (NCI-H187 [3]): 95.5 µM | IC50 (KB [5]): 99.2 µM

COc1cc(O)c2c(c1)O[C@H](c1ccccc1)CC2=O [PINOSTROBIN]
IC50 (KB [6]): Not Active | IC50 (NCI-H187 [8]): Not Active

COc1cc(O)c2c(=O)cc(-c3ccccc3)oc2c1 [TECHTOCHRYSIN]
IC50 (KB [6]): Not Active | IC50 (NCI-H187 [8]): Not Active | IC50 (Vero [7]): Non-toxic

COc1ccc(-c2cc(=O)c3c(OC)cc(OC)cc3o2)cc1 [TRIMETHYLAPIGENIN]
IC50 (KB [6]): Not Active | IC50 (NCI-H187 [8]): Not Active | IC50 (Vero [7]): Non-toxic
